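These data come from cells grown in 96-well plates and exposed to compound for 48 hours at five concentrations. At the GI50, growth is halved.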 Calls of active or inactive are those of the source. No stated cut-off is given here; in the data, active = GI50 up to about 1.1 µM and inactive = higher.
Tests used:
Assay in all cases: inhibition of tumour cell growth, NCI panel, 48 h
SF-268 = tested on: SF-268
IGROV-1 = tested on: IGROV-1
SF-295 = tested on: SF-295
UO-31 = tested on: UO-31
NCI-H522 = tested on: NCI-H522
HCC 2998 = tested on: HCC 2998
786-0 = tested on: 786-0
CCRF-CEM = tested on: CCRF-CEM
A549 = tested on: A549
A498 = tested on: A498
OVCAR-4 = tested on: OVCAR-4
OVCAR-3 = tested on: OVCAR-3
KM12 = tested on: KM12
CAKI-1 = tested on: CAKI-1
BT-549 = tested on: BT-549
NCI-H23 = tested on: NCI-H23
SNB-75 = tested on: SNB-75
MOLT-4 = tested on: MOLT-4
SN12C = tested on: SN12C
SF-539 = tested on: SF-539

SMILES | GI50 (SF-268) | GI50 (IGROV-1) | GI50 (SF-295) | GI50 (UO-31) | GI50 (NCI-H522) | GI50 (HCC 2998) | GI50 (786-0) | GI50 (CCRF-CEM) | GI50 (A549) | GI50 (A498) | GI50 (OVCAR-4) | GI50 (OVCAR-3) | GI50 (KM12) | GI50 (CAKI-1) | GI50 (BT-549) | GI50 (NCI-H23) | GI50 (SNB-75) | GI50 (MOLT-4) | GI50 (SN12C) | GI50 (SF-539)
COC(=O)C(Cc1ccccc1)NS(=O)(=O)c1ccc(-c2c3nc(c(-c4ccc(S(=O)(=O)NC(Cc5ccccc5)C(=O)OC)cc4)c4ccc([nH]4)c(-c4ccc(S(=O)(=O)NC(Cc5ccccc5)C(=O)OC)cc4)c4nc(c(-c5ccc(S(=O)(=O)NC(Cc6ccccc6)C(=O)OC)cc5)c5ccc2[nH]5)C=C4)C=C3)cc1 (stereo not given) | > 100 µM (inactive) | > 100 µM (inactive) | 54.6 µM (inactive) | > 100 µM (inactive) | > 100 µM (inactive) | > 100 µM (inactive) | 53.6 µM (inactive) | > 100 µM (inactive) | > 100 µM (inactive) | > 100 µM (inactive) | > 100 µM (inactive) | > 100 µM (inactive) | > 100 µM (inactive) | > 100 µM (inactive) | > 100 µM (inactive) | > 100 µM (inactive) | 12.5 µM (inactive) | > 100 µM (inactive) | > 100 µM (inactive) | > 100 µM (inactive)
C1=C(c2ccccc2)C(N2CCOCC2)Oc2ccccc21 (stereo not given) | > 100 µM (inactive) | > 100 µM (inactive) | > 100 µM (inactive) | 87.7 µM (inactive) | > 100 µM (inactive) | > 100 µM (inactive) | > 100 µM (inactive) | > 100 µM (inactive) | > 100 µM (inactive) | 25.5 µM (inactive) | > 100 µM (inactive) | > 100 µM (inactive) | > 100 µM (inactive) | > 100 µM (inactive) | 45.3 µM (inactive) | > 100 µM (inactive) | 32.5 µM (inactive) | 81.7 µM (inactive) | > 100 µM (inactive) | > 100 µM (inactive)
CSC1SCC2C(=O)N(C)C3(CC3C)C(=O)OCC(NC(=O)c3nc4ccccc4cc3O)C(=O)NC(C)C(=O)N(C)C1C(=O)N(C)C1(CC1C)C(=O)OCC(NC(=O)c1nc3ccccc3cc1O)C(=O)NC(C)C(=O)N2C (stereo not given) | < 0.0001 µM (active) | < 0.0001 µM (active) | < 0.0001 µM (active) | 0.000449 µM (active) | < 0.01 µM (active) | < 0.0001 µM (active) | < 0.0001 µM (active) | < 0.0001 µM (active) | < 0.0001 µM (active) | < 0.0001 µM (active) | < 0.0001 µM (active) | < 0.0001 µM (active) | < 0.0001 µM (active) | 0.000871 µM (active) | < 0.01 µM (active) | < 0.0001 µM (active) | < 0.0001 µM (active) | < 0.0001 µM (active) | < 0.0001 µM (active) | < 0.0001 µM (active)
O=C(O)CCC1COc2ccccc2O1 (stereo not given) | > 10 µM (inactive) | > 10 µM (inactive) | > 10 µM (inactive) | > 10 µM (inactive) | > 10 µM (inactive) | > 10 µM (inactive) | > 10 µM (inactive) | > 10 µM (inactive) | > 10 µM (inactive) | > 10 µM (inactive) | > 10 µM (inactive) | > 10 µM (inactive) | > 10 µM (inactive) | > 10 µM (inactive) | > 10 µM (inactive) | > 10 µM (inactive) | > 10 µM (inactive) | > 10 µM (inactive) | > 10 µM (inactive) | > 10 µM (inactive)
Cc1cc(S(=O)(=O)Nc2nnc3cnc4ccccc4n23)c(S)cc1Cl | 98.6 µM (inactive) | > 100 µM (inactive) | > 100 µM (inactive) | 35.2 µM (inactive) | > 100 µM (inactive) | > 100 µM (inactive) | > 100 µM (inactive) | > 100 µM (inactive) | > 100 µM (inactive) | > 100 µM (inactive) | > 100 µM (inactive) | 98.9 µM (inactive) | > 83.6 µM (inactive) | > 100 µM (inactive) | > 88.5 µM (inactive) | > 100 µM (inactive) | > 54.5 µM (inactive) | > 100 µM (inactive) | > 100 µM (inactive) | > 100 µM (inactive)
Cc1cc(C)nc(NS(=O)(=O)c2ccc(Nc3c4ccccc4nc4ccc(C(=O)Nc5ccc(S(=O)(=O)N=C(N)N)cc5)cc34)cc2)n1 | 69.5 µM (inactive) | > 100 µM (inactive) | > 100 µM (inactive) | 82.4 µM (inactive) | 65.8 µM (inactive) | > 100 µM (inactive) | 23.3 µM (inactive) | 31 µM (inactive) | > 100 µM (inactive) | > 100 µM (inactive) | 55.3 µM (inactive) | 43.4 µM (inactive) | > 100 µM (inactive) | > 100 µM (inactive) | 30.5 µM (inactive) | > 100 µM (inactive) | > 100 µM (inactive) | 32.3 µM (inactive) | 97.7 µM (inactive) | > 100 µM (inactive)
CC(=O)c1[nH]c(NCc2ccccc2)c(C(=S)Nc2ccccc2)c1N | 21.5 µM (inactive) | 0.317 µM (active) | 25.6 µM (inactive) | 0.452 µM (active) | 0.0383 µM (active) | 20.5 µM (inactive) | 17.3 µM (inactive) | 28.1 µM (inactive) | 27 µM (inactive) | 17.9 µM (inactive) | 26.4 µM (inactive) | 26.7 µM (inactive) | 17.9 µM (inactive) | 31 µM (inactive) | 23.5 µM (inactive) | 38.8 µM (inactive) | > 100 µM (inactive) | 36.7 µM (inactive) | 22.5 µM (inactive) | 1.88 µM (inactive)
